Assays:
[1] = biological target: cap-dependent endonuclease (RNP fraction containing PB1•PB2•PA complex) (Influenza A virus, UniProt P15659); experiment: biochemical; conditions: RNP from A/WSN/33 virus, capped Cy3/BHQ2 30mer RNA substrate, 60 minutes at room temperature; read-out: CEN IC50
influenza virus = experiment: microbe, parasite or virus in culture; type: cell-based, influenza virus (MDBK or MDCK cells); conditions: unidentified influenza virus, 72 h, read-out: CPE EC50, effective concentration to achieve 50% CPE inhibition, 3 days incubation, WST-8

| Compound | IC50 [1] [nM] | EC50 (influenza virus) [nM] |
| --- | --- | --- |
| O=C1c2c(O)c(=O)ccn2N(C2c3ccccc3CCc3ccccc32)CN1Cc1nccs1 [Example 271] | 73 | 102 |
| CN1CN(C2c3ccccc3CCc3ccccc32)n2ccc(=O)c(O)c2C1=O [Example 273] | 16 | 84 |
| O=C1c2c(O)c(=O)ccn2N(C2c3ccccc3CCc3ccccc32)CN1CCOC(F)(F)F [Example 277] | 39 | 71 |
| COc1ccc2c(c1)CCc1ccccc1C2N1CN(C(C)C)C(=O)c2c(O)c(=O)ccn21 (centres unmarked) [Example 278] | 205 | 74 |
| CC(C)N1CN(C2c3cc(Cl)ccc3CCc3ccc(Cl)cc32)n2ccc(=O)c(O)c2C1=O [Example 280] | 68 | 145 |
| CC(C)N1CN(C2c3cccc(F)c3CCc3c(F)cccc32)n2ccc(=O)c(O)c2C1=O [Example 281] | 26 | 18 |
| CC(C)N1CN(C2c3ccccc3CCc3cc(Cl)ccc32)n2ccc(=O)c(O)c2C1=O (centres unmarked) [Example 283] | 28 | 21 |
| CC(C)N1CN(C2c3cc(F)ccc3SCc3c(Cl)cccc32)n2ccc(=O)c(O)c2C1=O (centres unmarked) [Example 285] | 44 | 17 |
| O=C1c2c(O)c(=O)ccn2N(C2c3ccccc3CSc3ccccc32)CN1[C@@H]1CCN(CCOCc2ccccc2)C1 (some centres unmarked) [Example 286] | 161 | 121 |
| CN1CC[C@@H](N2CN(C3c4ccccc4CSc4ccccc43)n3ccc(=O)c(O)c3C2=O)C1 (some centres unmarked) [Example 287] | 154 | 268 |
| CN1CCC(N2CN(C3c4ccccc4CSc4ccccc43)n3ccc(=O)c(O)c3C2=O)CC1 (centres unmarked) [Example 288] | 299 | 85 |
| O=C1c2c(O)c(=O)ccn2N(C2c3ccccc3CSc3ccccc32)CN1[C@@H]1CCN(CCO)C1 (some centres unmarked) [Example 290] | 67 | 492 |
| CN1CCCC(N2CN(C3c4ccccc4CSc4ccccc43)n3ccc(=O)c(O)c3C2=O)C1 (centres unmarked) [Example 293] | 290 | 437 |
| O=C1c2c(O)c(=O)ccn2N(C2c3ccccc3CSc3ccccc32)CN1CC(F)F (centres unmarked) [Example 294] | 35 | 18 |
| Cc1nnc(CN2CN(C3c4ccccc4CSc4ccccc43)n3ccc(=O)c(O)c3C2=O)o1 (centres unmarked) [Example 295] | 52 | 334 |
| COc1ccc(N2CN(C3c4ccccc4CSc4ccccc43)n3ccc(=O)c(O)c3C2=O)cc1 (centres unmarked) [Example 296] | 130 | 397 |
| COCCN1CN(C2c3ccccc3CSc3ccccc32)n2ccc(=O)c(O)c2C1=O (centres unmarked) [Example 299] | 50 | 15 |
| COCC(C)N1CN(C2c3ccccc3CSc3ccccc32)n2ccc(=O)c(O)c2C1=O (centres unmarked) [Example 300] | 58 | 21 |
| O=C1c2c(O)c(=O)ccn2N(C2c3ccccc3CSc3ccccc32)CN1C1CC1 (centres unmarked) [Example 302] | 35 | 14 |
| O=C1c2c(O)c(=O)ccn2N(C2c3ccccc3CSc3ccccc32)CN1CCF (centres unmarked) [Example 304] | 18 | 15 |
| Cc1cc(CN2CN(C3c4ccccc4CSc4ccccc43)n3ccc(=O)c(O)c3C2=O)no1 (centres unmarked) [Example 305] | 59 | 103 |
| O=C1c2c(O)c(=O)ccn2N(C2c3ccccc3CSc3ccccc32)CN1Cc1ccccn1 (centres unmarked) [Example 307] | 52 | 95 |

| Compound | IC50 [1] [nM] | EC50 (influenza virus) [nM] |
| --- | --- | --- |
| CC(C)(C)N1CN(C2c3ccccc3CSc3ccccc32)n2ccc(=O)c(O)c2C1=O (centres unmarked) [Example 308] | 72 | 19 |
| CCN1CN(C2c3ccccc3CSc3ccccc32)n2ccc(=O)c(O)c2C1=O (centres unmarked) [Example 309] | 40 | 13 |
| CS(=O)(=O)CCN1CN(C2c3ccccc3CSc3ccccc32)n2ccc(=O)c(O)c2C1=O (centres unmarked) [Example 310] | 108 | 522 |
| COCCCN1CN(C2c3ccccc3CSc3ccccc32)n2ccc(=O)c(O)c2C1=O (centres unmarked) [Example 311] | 40 | 26 |
| C[C@H](N1CN(C2c3ccccc3CSc3ccccc32)n2ccc(=O)c(O)c2C1=O)C(C)(C)C (some centres unmarked) [Example 314] | 149 | 26 |
| Cc1noc(CN2CN(C3c4ccccc4CSc4ccccc43)n3ccc(=O)c(O)c3C2=O)n1 (centres unmarked) [Example 315] | 57 | 115 |
| O=C1c2c(O)c(=O)ccn2N(C2c3ccccc3CSc3ccccc32)CN1Cc1nccs1 (centres unmarked) [Example 316] | 69 | 83 |
| COC[C@H](C)N1CN(C2c3ccccc3CSc3ccccc32)n2ccc(=O)c(O)c2C1=O (some centres unmarked) [Example 317] | 48 | 17 |
| C[C@@H](N1CN(C2c3ccccc3CSc3ccccc32)n2ccc(=O)c(O)c2C1=O)C(C)(C)C (some centres unmarked) [Example 320] | 45 | 11 |
| O=C1c2c(O)c(=O)ccn2N(C2c3ccccc3CSc3ccccc32)CN1C(CF)CF (centres unmarked) [Example 322] | 113 | 28 |
| O=C1c2c(O)c(=O)ccn2N(C2c3ccccc3CSc3ccccc32)CN1[C@@H]1C[C@@H]1F (some centres unmarked) [Example 323] | 77 | 19 |
| O=C1c2c(O)c(=O)ccn2N(C2c3ccccc3CSc3ccccc32)CN1C1CC(F)(F)C1 (centres unmarked) [Example 324] | 107 | 35 |
| CC(C)N1CN(C2c3ccccc3CSc3cc(Cl)ccc32)n2ccc(=O)c(O)c2C1=O (centres unmarked) [Example 327] | 92 | 24 |
| CC(C)N1CN(C2c3ccccc3CSc3ccc(F)cc32)n2ccc(=O)c(O)c2C1=O (centres unmarked) [Example 329] | 58 | 23 |
| CCN1CN(C2c3ccccc3CSc3c(Cl)cccc32)n2ccc(=O)c(O)c2C1=O (centres unmarked) [Example 330] | 26 | 19 |
| CN1CN(C2c3ccccc3CSc3ccc(Cl)cc32)n2ccc(=O)c(O)c2C1=O (centres unmarked) [Example 331] | 45 | 335 |
| COCCN1CN(C2c3ccccc3CSc3ccc(Cl)cc32)n2ccc(=O)c(O)c2C1=O (centres unmarked) [Example 333] | 21 | 425 |
| COCCN1CN(C2c3ccccc3CSc3cc(Cl)ccc32)n2ccc(=O)c(O)c2C1=O (centres unmarked) [Example 334] | 75 | 32 |
| COCCN1CN(C2c3ccccc3CSc3c(Cl)cccc32)n2ccc(=O)c(O)c2C1=O (centres unmarked) [Example 335] | 19 | 16 |
| COCCN1CN(C2c3ccccc3CSc3cc(F)ccc32)n2ccc(=O)c(O)c2C1=O (centres unmarked) [Example 337] | 58 | 28 |
| COCCN1CN(C2c3ccccc3CSc3ccc(F)cc32)n2ccc(=O)c(O)c2C1=O (centres unmarked) [Example 338] | 74 | 85 |
| O=C1c2c(O)c(=O)ccn2N(C2c3ccccc3CSc3c(Cl)cccc32)CN1C1CC1 (centres unmarked) [Example 341] | 16 | 27 |

| Compound | IC50 [1] [nM] | EC50 (influenza virus) [nM] |
| --- | --- | --- |
| CC(N1CN(C2c3ccccc3CSc3c(Cl)cccc32)n2ccc(=O)c(O)c2C1=O)C(F)(F)F (centres unmarked) [Example 343] | 122 | 18 |
| CC(C)N1CN(C2c3cc(F)ccc3CSc3ccc(F)cc32)n2ccc(=O)c(O)c2C1=O (centres unmarked) [Example 346] | 28 | 18 |
| CN1CN(C2c3ccccc3CSc3c(Cl)cccc32)n2ccc(=O)c(O)c2C1=O (centres unmarked) [Example 347] | 14 | 17 |
| CN1CN(C2c3ccccc3CSc3ccc(F)cc32)n2ccc(=O)c(O)c2C1=O (centres unmarked) [Example 349] | 53 | 75 |
| CN1CN(C2c3ccccc3CSc3cc(F)ccc32)n2ccc(=O)c(O)c2C1=O (centres unmarked) [Example 355] | 40 | 75 |
| Cc1ccc2c(c1)C(N1CN(C(C)C)C(=O)c3c(O)c(=O)ccn31)c1ccccc1CS2 (centres unmarked) [Example 357] | 138 | 386 |
| Cc1ccc(C)c2c1SCc1ccccc1C2N1CN(C(C)C)C(=O)c2c(O)c(=O)ccn21 (centres unmarked) [Example 358] | 51 | 69 |
| O=C1c2c(O)c(=O)ccn2N(C2c3ccccc3CSc3ccccc32)CN1CCO (centres unmarked) [Example 360] | 42 | 87 |
| O=C1c2c(O)c(=O)ccn2N(C2c3ccccc3CCc3ccccc32)CN1CCO [Example 361] | 39 | 145 |
| CC(CO)N1CN(C2c3ccccc3CSc3ccccc32)n2ccc(=O)c(O)c2C1=O (centres unmarked) [Example 363] | 58 | 67 |
| O=C1c2c(O)c(=O)ccn2N(C2c3ccccc3CSc3ccccc32)CN1CC(O)CO (centres unmarked) [Example 365] | 41 | 2250 |
| O=C1c2c(O)c(=O)ccn2N(C2c3ccccc3CSc3ccccc32)CN1C(CO)CO (centres unmarked) [Example 366] | 90 | 838 |
| CC(CO)N1CN(C(c2ccccc2)c2ccccc2)n2ccc(=O)c(O)c2C1=O (centres unmarked) [Example 368] | 140 | 470 |
| CC(CCO)N1CN(C(c2ccccc2)c2ccccc2)n2ccc(=O)c(O)c2C1=O (centres unmarked) [Example 369] | 294 | 434 |
| CC(C)(O)CN1CN(C2c3ccccc3CCc3ccccc32)n2ccc(=O)c(O)c2C1=O [Example 370] | 113 | 61 |
| CC(C)(O)CN1CN(C2c3ccccc3CSc3ccccc32)n2ccc(=O)c(O)c2C1=O (centres unmarked) [Example 371] | 161 | 74 |
| O=C1c2c(O)c(=O)ccn2N(C2c3ccccc3CSc3ccccc32)CN1CC1(O)CCCCC1 (centres unmarked) [Example 372] | 164 | 146 |
| O=C1c2c(O)c(=O)ccn2N(C2c3ccccc3CSc3ccccc32)CN1[C@H](CO)c1ccccc1 (some centres unmarked) [Example 376] | 63 | 92 |
| CC(C)[C@@H](CO)N1CN(C2c3ccccc3CSc3ccccc32)n2ccc(=O)c(O)c2C1=O (some centres unmarked) [Example 378] | 47 | 22 |
| CC(C)N1CN(C2c3ccccc3CCc3c(CO)cccc32)n2ccc(=O)c(O)c2C1=O (centres unmarked) [Example 384] | 153 | 293 |
